Experimental data published in PubChem BioAssay AID2305 (GlaxoSmithKline (GSK), 2010).

Tested on: P. falciparum 3D7 growth, pLDH absorbance
Test: P. falciparum 3D7 growth inhibition, dose response, strain 3D7 (AID 2305)

Compound | IC50 [nM]
CN1CCN(CCCCCNc2c3ccccc3nc3ccccc23)CC1 | 740
O=C(Nc1ccncc1)Nc1ccc2c(c1)CCN(C1CCC1)CC2 | 1130
O=C(N[C@@H](Cc1ccccc1)C(=O)NC1CCCc2ccccc21)c1ccc(O)c(-c2ccc(Cl)c(Cl)c2)c1 (stereo partly drawn) | 210
CN1CCN(CC(=O)Nc2ccc(-c3cccc(-c4nc5ccc(F)cc5[nH]4)c3)cc2)CC1 | 830
Cc1c2ccc(N(C)c3ccnc(Nc4ccc5c(c4)nc(NC(C)C)n5C)n3)cc2nn1C | 160
CCOc1ccccc1NC(=O)C(Sc1nc(C)cc(C)c1C#N)c1ccccc1 (stereo not drawn) | 370
COCCNCc1cccc(-c2ccccc2CN(C(=O)Nc2ccccc2)C2CCN(Cc3ccccc3)CC2)c1 | 910
CCCC(C)C(=O)N1CCOC(COCc2cccc(C(F)(F)F)c2)(c2ccc(Cl)cc2)C1 (stereo not drawn) | 400
CC(Cc1ccc(Sc2ccccc2)cc1)NCC(O)c1cccc(C(F)(F)F)c1 (stereo not drawn) | 590
COc1cccc(C2(C)CCN(CCCCNC(=O)c3ccc(NC(=O)c4ccc(Cl)cc4)cc3)CC2)c1 | 830
CC(=O)Nc1ccc(CN2CCC(N(C)c3ccc(NC(=O)c4cccc(C)c4)cc3)CC2)cc1 | 990
CCNc1cc(C(=O)N[C@@H](Cc2ccccc2)[C@H](O)CN[C@@H](C)c2cccc(OC)c2)cc(N2CCCC2=O)c1 | 770
c1ccc2[nH]c(-c3ccc(-c4ccc(CN5CCCCC5)cc4)cc3)nc2c1 | 750
Cc1noc(C)c1S(=O)(=O)N(C)Cc1ccc(-c2ccc(Cl)cc2)o1 | 360
CCCCc1cc(Cc2cnc(N)nc2N)cc(OC)c1OC | 1040
COc1ccc(OCC(=O)Nc2cc(-c3nc4ccccc4[nH]3)ccc2Cl)cc1 | 900
N#Cc1cccc(C(=O)Nc2cccc(-c3ccc(C(=O)NCCCN4CCOCC4)cc3)c2)c1 | 750
CCOC(=O)C1=C(C)NC2=C(C(=O)CCC2)C1c1cn(Cc2ccc(Cl)cc2Cl)nc1-c1ccccc1 (stereo not drawn) | 620
Cn1nc(C(F)(F)F)c(-c2ccc(F)cc2)c1NC(=O)Nc1ccc(F)cc1F | 760
O=C(/C=C/c1ccc(Cl)c(Cl)c1)NCCCCCN1CCC(CCNC(=O)/C=C/c2ccc(Cl)c(Cl)c2)CC1 | 560
Nc1c(Cl)cc(C(O)CNCCCCCOCCCc2ccc3ncccc3c2)cc1Cl (stereo not drawn) | 980
Cc1ccc2c(NN=Cc3cccc(Cl)c3)cc(C)nc2c1 | 950
Cc1cccc2[nH]c(-c3cccc(-c4cccc(CNCC5CCCO5)c4)c3)nc12 (stereo not drawn) | 600
Cc1cc(-c2ccc3c(c2)CCN(CCC2CCC(NC(=O)/C=C/c4cccc(F)c4)CC2)CC3)on1 (stereo not drawn) | 750
CCCCCC1c2[nH]c3ccccc3c2CCN1C(=O)OCc1ccccc1 (stereo not drawn) | 390

Compound | IC50 [nM]
CC1(C)N=C(N)N=C(N)N1O | 190
O=C(Nc1cccc(CN2CCN(C(=O)c3cccc(Cl)c3)CC2)c1)c1ccco1 | 440
COc1ccc(CN=C(N)Nc2nc(-c3ccc(OCCCn4ccnc4)cc3)cs2)cc1 | 390
CCc1cn(C)c2c(N3CCCC3=O)cc(C(=O)N[C@@H](Cc3ccccc3)[C@H](O)CNC(C)(C)CCCC(C)C)cc12 | 490
C=CCNc1cc(-c2ccccn2)nc(-c2ccccn2)n1 | 470
CCc1cc(=O)[nH]c(-n2nc(C)cc2NC(=O)CC(c2ccccc2)c2ccccc2)n1 | 960
COc1cccc(-c2cc(C(F)(F)F)n3ncc(C(=O)Nc4cc(Cl)ccc4O)c3n2)c1 | 200
C=C(F)c1sc(CNCCCNc2nc3ccccc3[nH]2)c(C)c1Br | 370
O=C(Nc1cccc(CN2CCN(C(=O)c3cccc(F)c3)CC2)c1)c1ccco1 | 770
COc1ccc(-c2cc(NCc3ccc(-n4ccnc4)cc3)nc(Nc3ccccc3)n2)cc1 | 970
CCCCCCN1CCN(Cc2cccc(NC(=O)c3cccc(OCC)c3)c2)CC1 | 1110
CC(C)CNCc1ccc(-c2cccc(CN(C(=O)Nc3ccccc3)C3CCN(Cc4ccccc4)CC3)c2)cc1 | 410
c1cc(CNC2CCN(CC3CCCCC3)CC2)cc(-n2ccnc2)c1 | 650
COc1cccc(CNC(=O)NC2CCN(c3ccnc(Nc4ccc(F)cc4)n3)C2)c1 (stereo not drawn) | 810
CC(NC(=O)c1ccc(O)c(-c2ccc(Cl)c(Cl)c2)c1)C(=O)NCCN1CCCC1 (stereo not drawn) | 760
CCc1sc(N2CCN(C)CC2)nc1C(=O)Nc1ccc(F)cc1C(F)(F)F | 180
COc1ccc(CSC2CCCCC23NC(=S)NC3=S)cc1 (stereo not drawn) | 850
O=C(/C=C/c1ccc(Cl)c(Cl)c1)NCCCCCN1CCC(C(=O)Nc2cccc(Cl)c2)CC1 | 680
CCCOc1ccccc1-c1nc2[nH]c3c(c2c(=O)[nH]1)CCN(C)C3 | 370
CN1CCCC(CN2CCN(Cc3cccc(-c4ccc(-c5nc6ccccc6[nH]5)cc4)c3)CC2)C1 (stereo not drawn) | 160
O=C(NCCCCN1CCC(c2ccc3c(c2OCC2COCO2)CCCC3)CC1)c1ccc(-c2ccc(C(F)(F)F)cc2)cc1 (stereo not drawn) | 870
Cc1cccc2[nH]c(-c3ccc(-c4cccc(CN5CC(C)OC(C)C5)c4)s3)nc12 (stereo not drawn) | 760
Cc1ccc(CNc2cc(C(F)(F)F)nc(-c3ccc(S(C)(=O)=O)cc3)n2)cc1 | 500
CC(C)/C(=C(/F)CN1C(=O)C(NC(=O)c2cc3ccccc3[nH]2)C(=O)N(c2ccccc2)c2ccccc21)c1ccccc1 (stereo not drawn) | 700
COc1ccc2c(c1)CCCC2C(C)NCC(O)c1cccc(C(F)(F)F)c1 (stereo not drawn) | 350

Compound | IC50 [nM]
Cc1ccccc1CNCC(O)c1cccc(C(F)(F)F)c1 (stereo not drawn) | 880
CO/C=C(/C(=O)OC)c1ccccc1Oc1cc(Oc2ccccc2C#N)ncn1 | 40
N#Cc1cccc(Nc2cc(C(F)(F)F)nc(Nc3ccccc3)n2)c1 | 1440
c1ccc(CNCc2cccc(-c3cccc(-c4nc5ccccc5[nH]4)c3)c2)cc1 | 570
COc1cccc(CNC(=O)[C@H]2CNCCN2C(=O)CCCc2ccccc2)c1 | 790
CC[C@@H]([C@@H](Cc1cc2ccccc2s1)C(=O)N[C@@H](CCCCNC(=O)OCc1ccccc1)C(=O)Nc1ccccn1)N(O)C=O | 230
COc1c(C2CCN(CCCCNC(=O)c3ccc(-c4ccc(C#N)cc4)c(O)c3)CC2)ccc2c1CCCC2 | 200
Cc1cc(F)ccc1Oc1nc(Nc2ccc(N3CCOCC3)c(F)c2)nc2c1S(=O)(=O)CCC2 | 460
CC1(C)N=C(N)N=C(N)N1c1cc(Cl)c(Cl)cc1Cl | 180
CC(=O)Nc1ccc(C(=O)Nc2cccc(-c3csc(-c4nc5ccccc5[nH]4)c3)c2)cn1 | 120
CC(=O)Nc1ccc(CN2CCN(C(c3ccc(F)cc3)c3ccc(F)cc3)CC2)cc1 | 830
Cc1ccc(Oc2ncccc2C(=O)Nc2cccc3cccnc23)c(C)c1 | 220
Fc1ccc2nc(-c3ccc(-c4ccc(CN5CCC(CCN6CCCCC6)CC5)cc4)cc3)[nH]c2c1 | 130
Cc1cc(N[C@@H](Cc2ccccc2)C(=O)NC2CCCC2)nc(NCC2CCCCC2)n1 | 1170
CC(C)CC(NC(=O)c1cc2ccccc2s1)C(=O)N1CCCCCC1c1ccc(C(C)(C)C)cc1 (stereo not drawn) | 860
CO[C@H](C)[C@H](NC(=O)[C@H](CC(C)C)[C@H](CCC(F)(F)F)N(O)C=O)C(=O)Nc1nccs1 | 110
Cc1ccc(Cc2c(C)nc3nc(N)nc(N)c3c2C)cc1 | 240
CCn1c(Sc2ccc(C#N)c([N+](=O)[O-])c2)nnc1-c1ccc(Cl)cc1 | 550
COc1ccc2nc(C)cc(Nc3ccc(N4CCN(C)CC4)cc3)c2c1 | 790
COc1ccc(O)c(C(=O)c2cc(C(=O)NCCc3ccccc3)c(=O)n(CCc3ccccc3)c2)c1 | 1010
COC(=O)CCCCOc1cc(Cc2cnc(N)nc2N)cc(OC)c1OC | 170
CC(C)(C)c1ccc(-c2nc3c(ccc4nc(N)nc(N)c43)[nH]2)cc1 | 160
Cc1cc(N2CCCC2)nc(Nc2ccc(NC(=O)c3ccco3)cc2)n1 | 840
O=C(C=Cc1ccccc1)Nc1ccc(C#CC=Cc2ccc(NC(=O)C=Cc3ccccc3)cc2)cc1 | 850
Cc1ccc(C[C@H](C)NC[C@H](O)c2cccc(C(F)(F)F)c2)cc1 | 980

Compound | IC50 [nM]
CCNc1cc(C(=O)N[C@@H](Cc2ccccc2Cl)[C@H](O)CNC(C)CCCC(C)C)cc(N2CCCCS2(=O)=O)c1 (stereo partly drawn) | 930
O=C(NCCc1ccc(Cl)c(Cl)c1)c1ccc(CNC(=O)c2ccc(O)c(-c3ccc(Cl)c(Cl)c3)c2)cc1 | 810
C=CCn1c(Sc2ccc(C#N)c([N+](=O)[O-])c2)nnc1-c1cccc(Cl)c1 | 300
O=C(Nc1ccc(-c2nc3ccccc3[nH]2)cc1)c1cncc(Br)c1 | 810
COc1ccc(Cc2c(C)nc3nc(N)nc(N)c3c2C)cc1 | 280
O=c1[nH]c2ccc3[nH]cccc3c2c1C=Nc1ccc(N2CCN(CCO)CC2)cc1 | 1270
NOCCCCOc1ccccc1 | 180
CN(C)CCN(C)Cc1cccc(-c2ccc3c(Nc4ccc(F)cc4Cl)ccnc3c2)c1 | 110
CN1CCC(N(Cc2ccc(-c3cnc(NCc4ccccc4)nc3)cc2)S(=O)(=O)c2ccccc2)CC1 | 780
N#Cc1c(N)nc(SCC(=O)Nc2cc(C(F)(F)F)ccc2Cl)c(C#N)c1-c1cccs1 | 740
COc1cc2c(cc1OC)CN(CCCCNC(=O)c1ccc(NC(=O)c3cc(Cl)cc(Cl)c3)cc1)CC2 | 780
Cc1cc2c3c(N)nc(N)nc3ccc2n1C | 90
CN(C)CCN(C)Cc1ccc(-c2ccc(NS(=O)(=O)c3cccc4cccnc34)cc2)cc1 | 860
O=C(Nc1ccc2nccc(N3CCN4CCC[C@H]4C3)c2c1)c1ccc(Cl)c(Cl)c1 | 340
O=[N+]([O-])c1ccc(/C=N/Nc2cc(-c3ccccc3)nc3ccccc23)o1 | 860
COc1ccc2c(CNCCCCCCNCc3c(OC)ccc4cc(OC)ccc34)c(OC)ccc2c1 | 560
CN1CCCC(CN2CCN(Cc3cccc(-c4ccc(-c5nc6ccc(C(F)(F)F)cc6[nH]5)cc4)c3)CC2)C1 (stereo not drawn) | 150
Cc1[nH]c(C)c(-c2ccc(-c3cc(C(F)(F)F)cc(C(F)(F)F)c3)nc2)c(=O)c1Br | 80
O=C(Nc1ccc([N+](=O)[O-])cc1Br)c1cc2ccccc2nc1Cl | 190
COc1ccc(CN2CCCC(OC(c3ccc(F)cc3)c3ccc(F)cc3)C2)c(O)c1 (stereo not drawn) | 610
CN(C)C(=O)CN1CCN(c2ncnc(N3CCc4c([nH]c5ccccc45)[C@@H]3c3ccc4c(c3)CCO4)n2)CC1 | 870
CCOc1ncccc1CN1CCC(N2CCc3cc(NC(=O)c4cc(C)on4)ccc32)C1 (stereo not drawn) | 310
Oc1ccc(CCNc2nc(NCCCOc3ccccc3-c3ccc(C(F)(F)F)cc3)nc(N3CCNCC3)n2)cc1 | 890
